Read-outs that look alike come from different tables or passages of the source.
Key:
[1] = tested on: VX-950 metabolism in human hepatic microsomes; format: in vitro ADME; details: 0.25 μM VX-950, 0.25 mg microsomal protein/mL, 2 minutes

Row | SMILES | effect of ritonavir on VX-950 metabolism ([1]; ritonavir 10 to 100 μM) | effect of ritonavir on VX-950 metabolism ([1]; ritonavir up to 3 μM) | metabolized in human liver microsomes (1 h, 2 μM) [%] | metabolized in human liver microsomes (1 h, 20 μM) [%] | metabolized in human liver microsomes (2 h, 2 μM) [%] | metabolized in human liver microsomes (2 h, 20 μM) [%]
1 | CC(C)c1nc(CN(C)C(=O)N[C@H](C(=O)N[C@@H](Cc2ccccc2)C[C@H](O)[C@H](Cc2ccccc2)NC(=O)OCc2cncs2)C(C)C)cs1 [ritonavir] | increase in VX-950 metabolism | inhibition of VX-950 metabolism | – | – | – | –
2 | CCC[C@H](NC(=O)[C@@H]1[C@H]2CCC[C@H]2CN1C(=O)[C@@H](NC(=O)[C@@H](NC(=O)c1cnccn1)C1CCCCC1)C(C)(C)C)C(=O)C(=O)NC1CC1 [VX-950] | – | – | 73 | 7 | 86 | 21

Reference: patent publication US20060003942A1, “Combinations for HCV treatment” (priority 2003, published 2006)
